How the values were obtained:
[1] = tested on: barnyardgrass (Echinochloa crus-galli); test: Test B flooded paddy test, visual rating 0-100; conditions: Flood, 250 g ai/ha, applied to paddy water, rated after 13 to 15 days
[2] = tested on: ducksalad (Heteranthera limosa); test: Test B flooded paddy test, visual rating 0-100; conditions: Flood, 250 g ai/ha, applied to paddy water, rated after 13 to 15 days
kochia (Kochia scoparia) [3] = test: Test A preemergence, visual injury rating 0-100; assay type: in vivo
[4] = tested on: ragweed (common ragweed, Ambrosia elatior); test: Test A preemergence, visual injury rating 0-100; assay type: in vivo
[5] = tested on: ryegrass, Italian (Italian ryegrass, Lolium multiflorum); test: Test A preemergence, visual injury rating 0-100; assay type: in vivo; conditions: 500 g ai/ha
[6] = tested on: foxtail, giant (giant foxtail, Setaria faberii); test: Test A preemergence, visual injury rating 0-100; assay type: in vivo
[7] = tested on: pigweed (Amaranthus retroflexus); test: Test A preemergence, visual injury rating 0-100; assay type: in vivo
[8] = tested on: barnyardgrass (Echinochloa crus-galli); test: Test A preemergence, visual injury rating 0-100 (0 no effect, 100 complete control); assay type: in vivo
kochia (Kochia scoparia) [9] = test: Test A postemergence, visual injury rating 0-100; assay type: in vivo; conditions: 0 to 100 scale
corn (Zea mays) = test: Test A postemergence, visual injury rating 0-100; assay type: in vivo; conditions: 0 to 100 scale
[10] = tested on: barnyardgrass (Echinochloa crus-galli); test: Test A postemergence, visual injury rating 0-100; assay type: in vivo; conditions: 0 to 100 scale
[11] = tested on: ragweed (common ragweed, Ambrosia elatior); test: Test A postemergence, visual injury rating 0-100; assay type: in vivo; conditions: 0 to 100 scale
[12] = tested on: wheat (Triticum aestivum); test: Test A postemergence, visual injury rating 0-100; assay type: in vivo; conditions: 0 to 100 scale
[13] = tested on: ryegrass, Italian (Italian ryegrass, Lolium multiflorum); test: Test A postemergence, visual injury rating 0-100; assay type: in vivo; conditions: 0 to 100 scale
[14] = tested on: foxtail, giant (giant foxtail, Setaria faberii); test: Test A postemergence, visual injury rating 0-100; assay type: in vivo; conditions: 0 to 100 scale
[15] = tested on: pigweed (Amaranthus retroflexus); test: Test A postemergence, visual injury rating 0-100; assay type: in vivo; conditions: 0 to 100 scale
[16] = tested on: galium (catchweed bedstraw, Galium aparine); test: Test A postemergence, visual injury rating 0-100; assay type: in vivo; conditions: 0 to 100 scale
[17] = tested on: blackgrass (Alopecurus myosuroides); test: Test A postemergence, visual injury rating 0-100; assay type: in vivo; conditions: 0 to 100 scale
rice (Oryza sativa) = test: Test B flooded paddy test, visual rating 0-100 (0 no effect, 100 complete control); conditions: Flood, 250 g ai/ha, applied to paddy water, rated after 13 to 15 days

Row | Structure (SMILES) | Barnyardgrass plant response rating (0 to 100 scale) [1] | Ducksalad plant response rating (0 to 100 scale) [2] | Kochia plant response rating (0 to 100 scale) (kochia (Kochia scoparia) [3]; 125 g ai/ha) | Kochia plant response rating (0 to 100 scale) (kochia (Kochia scoparia) [3]; 500 g ai/ha) | Ragweed plant response rating (0 to 100 scale) ([4]; 125 g ai/ha) | Ragweed plant response rating (0 to 100 scale) ([4]; 500 g ai/ha) | Ryegrass, Italian plant response rating (0 to 100 scale) [5] | Foxtail, Giant plant response rating (0 to 100 scale) ([6]; 125 g ai/ha) | Foxtail, Giant plant response rating (0 to 100 scale) ([6]; 500 g ai/ha) | Pigweed plant response rating (0 to 100 scale) ([7]; 125 g ai/ha) | Pigweed plant response rating (0 to 100 scale) ([7]; 500 g ai/ha) | Barnyardgrass plant response rating (0 to 100 scale) ([8]; 125 g ai/ha) | Barnyardgrass plant response rating (0 to 100 scale) ([8]; 500 g ai/ha) | Kochia plant response rating (kochia (Kochia scoparia) [9]; 125 g ai/ha) | Kochia plant response rating (kochia (Kochia scoparia) [9]; 500 g ai/ha) | Corn plant response rating (corn (Zea mays); 125 g ai/ha) | Corn plant response rating (corn (Zea mays); 500 g ai/ha) | Barnyardgrass plant response rating ([10]; 125 g ai/ha) | Barnyardgrass plant response rating ([10]; 500 g ai/ha) | Ragweed plant response rating ([11]; 125 g ai/ha) | also measured
1 | CC1=[N+]([O-])C(C(=O)Nc2cccc(F)c2F)C(c2cc(F)c(C(F)(F)F)c(F)c2)C1 (racemic) [Compound 114] | 40 | 60 | 20 | 80 | 80 | 90 | 90 | 90 | 90 | 50 | 80 | 90 | 90 | 20 | 70 | 40 | 80 | 70 | 90 | 30 | Ragweed plant response rating ([11]; 500 g ai/ha): 70; Wheat plant response rating ([12]; 125 g ai/ha): 40; Wheat plant response rating ([12]; 500 g ai/ha): 60; Ryegrass, Italian plant response rating ([13]; 125 g ai/ha): 60; Ryegrass, Italian plant response rating ([13]; 500 g ai/ha): 70; Foxtail, Giant plant response rating ([14]; 125 g ai/ha): 80; Foxtail, Giant plant response rating ([14]; 500 g ai/ha): 90; Pigweed plant response rating ([15]; 125 g ai/ha): 0; Pigweed plant response rating ([15]; 500 g ai/ha): 70; Galium plant response rating ([16]; 125 g ai/ha): 70; Galium plant response rating ([16]; 500 g ai/ha): 70; Blackgrass plant response rating ([17]; 125 g ai/ha): 80; Blackgrass plant response rating ([17]; 500 g ai/ha): 80; Rice plant response rating (0 to 100 scale) (rice (Oryza sativa)): 30
2 | CC1=[N+]([O-])C(C(=O)Nc2cccc(F)c2F)C(c2cccc(Oc3ncc(Cl)cn3)c2)C1 (racemic) [Compound 115] | 0 | 0 | 0 | 30 | 0 | 20 | 80 | 20 | 90 | 0 | 0 | 90 | 90 | 0 | 20 | 0 | 60 | 0 | 60 | 0 | Ragweed plant response rating ([11]; 500 g ai/ha): 20; Wheat plant response rating ([12]; 125 g ai/ha): 10; Wheat plant response rating ([12]; 500 g ai/ha): 50; Ryegrass, Italian plant response rating ([13]; 125 g ai/ha): 0; Ryegrass, Italian plant response rating ([13]; 500 g ai/ha): 60; Foxtail, Giant plant response rating ([14]; 125 g ai/ha): 0; Foxtail, Giant plant response rating ([14]; 500 g ai/ha): 70; Pigweed plant response rating ([15]; 125 g ai/ha): 0; Pigweed plant response rating ([15]; 500 g ai/ha): 20; Galium plant response rating ([16]; 125 g ai/ha): 40; Galium plant response rating ([16]; 500 g ai/ha): 70; Blackgrass plant response rating ([17]; 125 g ai/ha): 40; Blackgrass plant response rating ([17]; 500 g ai/ha): 80; Rice plant response rating (0 to 100 scale) (rice (Oryza sativa)): 0

From patent US11498899B2, “Nitrone herbicides” (FMC Corporation, priority 2016, dated 2022)
